One series concerns the target human mGlu2 receptor (Homo sapiens (Human), UniProt Q14416). Put plainly: Assessment of mGlu2 receptor negative allosteric modulator activity in human mGlu2 receptor stable expressing cells (aequorin luminescence, EC80 glutamate). Type of series: cell-based. As to conditions: human mGlu2 receptor stable expressing HEK cells; compound added 120 seconds before EC80 glutamate; luminescence (RLU); read-out: mGluR2 NAM IC50 (nM) or inhibition rate (%). The procedure: Test 1: Assessment with Human mGlu2 Receptor Stable Expressing Cells
(1) Human mGlu2 Receptor Stable Expressing Cells
Human mGlu2 receptor stable expressing cells were prepared, and used for incubation. Specifically, human mGlu2 receptor gene was inserted into pcDNA4/TO (K1020-01, Life technologies, Carlsbad, Calif., USA), and introduced into TR-expressed human kidney-derived HEK cells (cat #CCL-82.2, ATCC, USA), followed by screening with Geneticin (cat #10131-027, Life technologies, Carlsbad, Calif., USA), to obtain human mGlu2 receptor stable expressing cells.
High glucose-DMEM media (cat #11995-065, Life technologies, Carlsbad, Calif., USA) containing 10% Dialysed-FBS (cat #26400-044, Life technologies, Carlsbad, Calif., USA), 50 μg/mL Blasticidin S (cat #ANT-BL-1, Life technologies, Carlsbad, Calif., USA), and 2 mg/mL G418 (cat #16513-84, nacalai tesque, Kyoto, Japan) were used for incubation on flasks for cell culture (cat #3133-150, AGC Thechno Glass, Shizuoka, Japan). During the incubation, cells were recovered by the treatment with TrypLE Express (cat #12604-013, Life technologies, Carlsbad, Calif., USA), followed by subculture, every three to four days.
Cells were recovered by an about 80% confluency in the treatment with TrypLE Express three to four days after the subculture, transiently transfected with Ga16, apoaequorin, in media of Hanks (cat #14065-056, Life technologies, Carlsbad, Calif., USA)/20 mmol/L HEPES (cat #15630-080, Life technologies, Carlsbad, Calif., USA) Buffer (pH 7.4) containing 0.1% BSA (cat #12604-013, Life technologies, Carlsbad, Calif., USA) and 0.1 μg/mL Tetracycline (cat #33031-64, nacalai tesque, Kyoto, Japan), and then seeded on a 384-well plate (cat #781090, Greiner bio-one, Frickenhausen, Germany) in 1,500 cells/30 μL/well.
Coelentetrazine h (cat #S2011, Promega, Madison, Wis., USA) was added to the plate (10 μl/well) so as to be a final concentration of 1 μmol/L on the day after the seeding, and let stand for 4 hours or more at room temperature after centrifugation.
(2) Preparation of Test Compounds
A test compound was dissolved in DMSO so as to be a concentration 1000 times higher than the assessment concentration. This DMSO solution was diluted with a medium (Hanks, 20 mmol/L HEPES, 0.1% BSA) to a concentration 6 times higher than the assessment concentration. Glutamate was diluted with Hanks/20 mmol/L HEPES/0.1% BSA medium to a concentration 6 times higher than EC80 concentration.
(3) Assessment of mGlu2 Receptor Negative Allosteric Modulator Activity
Human mGlu2 receptor stable expressing cells were prepared and incubated. Luminescence signals by mGlu2 receptor stimulation were detected with FDSS7000 (Hamamatsu Photonics). The compound solution prepared above was added to a plate where cells and luminescent substrates were added (10 μl/well). After 120 seconds of the addition, EC80 Glutamate-containing solution was added thereto (10 μl/well), and luminescence signals were measured for 300 seconds after the addition (center wavelength: 465 nm) for calculation of RLU (Integration). mGlu2 receptor negative allosteric modulator activity of a compound was calculated by (100-100×(RLU of each compound and concentration)/(RLU of DMSO group)).
The present compound was assessed with the above biological test, and the compounds with mGlu2 receptor negative allosteric modulator activity were found out. mGlu2 receptor negative allosteric modulator activity (IC50 value (nmol/L)) for each compound is shown in the following table.

The target of another series is CYP3A4 (Homo sapiens (Human), UniProt P08684). Put plainly: Assessment of MBI and enzyme inactivation clearance against CYP3A4 (human liver microsomes, midazolam or testosterone as substrate). Type of series: in vitro ADME. To be noted: for microsomal CLint: probe midazolam or testosterone, CYP3A4, human liver microsomes, CLint = kinact/KI x CYP contents; for CYP3A4 MBI: shift in IC50 values due to preincubation with NADPH, human liver microsomes, MBI potential when 2-fold or more, N.D. = Not Detected. The text has this:
Test 4: Assessment of MBT and Enzyme Inactivation Clearance Against CYP3A4
Cytochrome P450 (hereinafter called CYP) is the most important enzyme group associated with drug metabolism, and most of pharmacokinetic interactions are based on the inhibition of the CYP activities. CYP includes multiple molecular species. In particular, CYP3A4 is most involved in drug metabolism in oxidation reaction with CYP, and accounts for a major portion of CYPs existing in the liver.
CYP inhibition is generally divided into two types consisting of “reversible inhibition” and “irreversible inhibition (mechanism-based inhibition: MBI)”. In particular, CYP inhibition based on the MBI is known to have a possibility to cause severe side effects such as hepatotoxicity as well as drug-drug interactions (Curr Opin Drug Discov Devel. 2010 January, 13(1), 66-77, Therapeutics and Clinical Risk Management, 2005, 1(1), 3-13).
MBI and enzyme inactivation clearance against CYP3A4 were evaluated for example compounds.
Inhibition effects and inhibition types of test compounds to CYP3A4 were evaluated using human liver microsomes as an enzyme source and midazolam or testosterone as a substrate of CYP3A4. After metabolic reaction for 30 minutes at 37° C., metabolites of CYP3A4 substrate in the presence or absence of a test compound (at 4 concentrations) were measured by LC-MS/MS, and the inhibition rates were calculated from the ratios of peak area. IC50 values were calculated from plots of test compound concentrations. It was known that when a test compound has MBI potential, IC50 value is lowered by starting metabolic reactions after preincubation in the presence of NADPH (cofactor). Therefore, it was determined that there was MBI potential when the shift in IC50 values due to preincubation was 2-fold or more (Xenobiotica, 2009, 39(2), 99-112).
When MBI potential was determined, kinact (maximum inactivation rate constant) and KI (inactivator concentration yielding a measured inactivation rate at half of kinact) were calculated by the non-linear least-squares method. Enzyme inactivation clearance was calculated according to the method described in Drug Metabolism and Disposition, 2011, 39(7), 1247-1254 (CLint=kinact/KI([…])×CYP contents (pmol/mg protein)).

CYP3A4, sequence (P08684 whole entry): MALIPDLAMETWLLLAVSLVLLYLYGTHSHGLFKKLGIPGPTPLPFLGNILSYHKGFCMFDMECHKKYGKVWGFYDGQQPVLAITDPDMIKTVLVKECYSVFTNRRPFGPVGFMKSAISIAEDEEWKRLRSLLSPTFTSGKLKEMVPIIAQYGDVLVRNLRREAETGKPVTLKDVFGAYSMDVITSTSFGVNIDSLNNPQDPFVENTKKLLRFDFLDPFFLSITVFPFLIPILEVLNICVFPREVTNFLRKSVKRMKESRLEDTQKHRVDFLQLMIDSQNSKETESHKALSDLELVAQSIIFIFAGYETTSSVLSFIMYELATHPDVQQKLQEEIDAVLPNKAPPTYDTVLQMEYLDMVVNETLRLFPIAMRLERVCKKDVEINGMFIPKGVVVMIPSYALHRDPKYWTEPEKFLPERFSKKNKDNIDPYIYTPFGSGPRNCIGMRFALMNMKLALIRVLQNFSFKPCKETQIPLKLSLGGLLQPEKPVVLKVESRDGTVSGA
human mGlu2 receptor, sequence (Q14416 19-872): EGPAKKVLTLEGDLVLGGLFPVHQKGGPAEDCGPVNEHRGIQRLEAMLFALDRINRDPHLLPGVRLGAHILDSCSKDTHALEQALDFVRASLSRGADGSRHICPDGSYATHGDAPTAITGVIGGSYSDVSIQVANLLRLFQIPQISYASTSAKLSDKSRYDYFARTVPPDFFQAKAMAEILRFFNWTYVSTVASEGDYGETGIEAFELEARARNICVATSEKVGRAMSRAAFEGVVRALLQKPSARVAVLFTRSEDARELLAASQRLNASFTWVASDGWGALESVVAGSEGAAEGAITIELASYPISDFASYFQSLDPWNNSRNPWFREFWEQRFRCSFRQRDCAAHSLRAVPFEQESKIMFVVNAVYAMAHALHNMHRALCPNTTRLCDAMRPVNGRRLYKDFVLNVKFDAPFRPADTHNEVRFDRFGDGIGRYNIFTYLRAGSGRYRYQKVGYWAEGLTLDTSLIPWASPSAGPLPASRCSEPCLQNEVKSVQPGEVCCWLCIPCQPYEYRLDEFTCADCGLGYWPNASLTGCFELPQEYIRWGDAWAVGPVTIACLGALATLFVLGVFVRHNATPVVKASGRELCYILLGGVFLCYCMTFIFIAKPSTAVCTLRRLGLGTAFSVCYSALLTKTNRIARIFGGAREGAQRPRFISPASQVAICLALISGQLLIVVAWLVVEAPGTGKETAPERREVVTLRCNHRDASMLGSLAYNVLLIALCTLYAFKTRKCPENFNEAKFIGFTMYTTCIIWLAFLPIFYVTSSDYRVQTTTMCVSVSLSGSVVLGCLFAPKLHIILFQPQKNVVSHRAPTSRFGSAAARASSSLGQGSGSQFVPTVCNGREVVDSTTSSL

As for `C[C@H]1CN(c2ccc(C(F)(F)F)cc2)C(=O)c2c(-c3ccc4ncc(F)n4c3)cnn21` [Example 13, (7S)-3-(3-fluoroimidazo[1,2-a]pyridin-6-yl)-7-methyl-5-[4-(trifluoromethyl)phenyl]-6,7-dihydropyrazolo[1,5-a]pyrazin-4(5H)-one], on human mGlu2 receptor, the IC50 is 7.9 nM. For the compound `Cc1cc(N2C[C@H](C)n3ncc(-c4ccc5ncc(F)n5c4)c3C2=O)ccc1F` [Example 18, (7S)-3-(3-fluoroimidazo[1,2-a]pyridin-6-yl)-5-(4-fluoro-3-methylphenyl)-7-methyl-6,7-dihydropyrazolo[1,5-a]pyrazin-4(5H)-one], the 50% inhibitory concentration (IC50) at human mGlu2 receptor was 6.9 nM. With `C[C@H]1CN(c2ccc3c(c2)OC(F)(F)O3)C(=O)c2c(-c3ccc4nccn4c3)cnn21` [Example 8, (7S)-5-(2,2-difluoro-1,3-benzodioxol-5-yl)-3-(imidazo[1,2-a]pyridin-6-yl)-7-methyl-6,7-dihydropyrazolo[1,5-a]pyrazin-4(5H)-one], at CYP3A4, the microsomal CLint came out at 0.601 µL/min/mg and the “CYP3A4 MBI” value stood at 2.2. In the same order, the values of `C[C@H]1CN(c2ccc(C(F)(F)F)cn2)C(=O)c2c(-c3ccc4nccn4c3)cnn21` [Example 12, (7S)-3-(imidazo[1,2-a]pyridin-6-yl)-7-methyl-5-[5-(trifluoromethyl)pyridin-2-yl]-6,7-dihydropyrazolo[1,5-a]pyrazin-4(5H)-one] are 0.159 µL/min/mg and 2.2. Turning to `C[C@H]1CN(c2ccc(C(F)(F)F)cc2)C(=O)c2c(-c3ccc4ncc(N)n4c3)cnn21` [Example 11, (7S)-3-(3-aminoimidazo[1,2-a]pyridin-6-yl)-7-methyl-5-[4-(trifluoromethyl)phenyl]-6,7-dihydropyrazolo[1,5-a]pyrazin-4(5H)-one], the IC50 at human mGlu2 receptor was determined as 78 nM. Consider `C[C@H]1CN(c2ccc(Cl)s2)C(=O)c2c(-c3ccc4nccn4c3)cnn21` [Example 7, (7S)-5-(5-chlorothiophen-2-yl)-3-(imidazo[1,2-a]pyridin-6-yl)-7-methyl-6,7-dihydropyrazolo[1,5-a]pyrazin-4(5H)-one], for which, at human mGlu2 receptor, the IC50 was determined as 11 nM. On CYP3A4, the intrinsic metabolic clearance (microsomal CLint) is 2.15 µL/min/mg and the “CYP3A4 MBI” value is given as 4.5.

Turning to `C[C@H]1CN(c2ccc(C(F)(F)F)cc2)C(=O)c2c(-c3ccc4nc(N)cn4c3)cnn21` [Example 10, (7S)-3-(2-aminoimidazo[1,2-a]pyridin-6-yl)-7-methyl-5-[4-(trifluoromethyl)phenyl]-6,7-dihydropyrazolo[1,5-a]pyrazin-4(5H)-one], on human mGlu2 receptor, the IC50 is 302 nM. Take `Cc1cc(N2C[C@H](C)n3ncc(-c4ccc5nccn5c4)c3C2=O)ccc1F` [Example 17, (7S)-5-(4-fluoro-3-methylphenyl)-3-(imidazo[1,2-a]pyridin-6-yl)-7-methyl-6,7-dihydropyrazolo[1,5-a]pyrazin-4(5H)-one]: at human mGlu2 receptor, the half-inhibitory concentration (IC50) amounted to 17 nM. Moreover, on CYP3A4, the microsomal CLint turned out to be 1.94 µL/min/mg and the “CYP3A4 MBI” value came out at 3.2. `C[C@H]1CN(c2ccc(C(F)(F)F)cc2)C(=O)c2c(-c3ccc4nccn4c3)cnn21` [Example 1, (7S)-3-(imidazo[1,2-a]pyridin-6-yl)-7-methyl-5-[4-(trifluoromethyl)phenyl]-6,7-dihydropyrazolo[1,5-a]pyrazin-4(5H)-one]: the concentration for half-maximal inhibition (IC50) on human mGlu2 receptor was found to be 18 nM. Still for that read-out and setting: as for `CCCc1cnc2ccc(-c3cnn4c3C(=O)N(c3ccc(C(F)(F)F)cc3)C[C@@H]4C)cn12` [Example 16, (7S)-7-methyl-3-(3-propylimidazo[1,2-a]pyridin-6-yl)-5-[4-(trifluoromethyl)phenyl]-6,7-dihydropyrazolo[1,5-a]pyrazin-4(5H)-one], the figure is 13 nM.

Regarding `C[C@H]1CN(c2ccc(F)c(Cl)c2)C(=O)c2c(-c3ccc4nccn4c3)cnn21` [Example 3, (7S)-5-(3-chloro-4-fluorophenyl)-3-(imidazo[1,2-a]pyridin-6-yl)-7-methyl-6,7-dihydropyrazolo[1,5-a]pyrazin-4 (5H)-one], the concentration for half-maximal inhibition (IC50) on human mGlu2 receptor is 23 nM.

For the compound `C[C@H]1CN(c2ccc(C(F)(F)F)cc2)C(=O)c2c(-c3cn4ccnc4cn3)cnn21` [Example 2, (7S)-3-(imidazo[1,2-a]pyrazin-6-yl)-7-methyl-5-[4-(trifluoromethyl)phenyl]-6,7-dihydropyrazolo[1,5-a]pyrazin-4(5H)-one], on human mGlu2 receptor, the half-maximal inhibitory concentration (IC50) was determined as 11 nM. Still for that read-out and setting: to `C[C@H]1CN(c2ccc(C(F)F)cc2)C(=O)c2c(-c3ccc4nccn4c3)cnn21` [Example 4, (7S)-5-[4-(difluoromethyl)phenyl]-3-(imidazo[1,2-a]pyridin-6-yl)-7-methyl-6,7-dihydropyrazolo[1,5-a]pyrazin-4(5H)-one] belongs 33 nM; to `C[C@H]1CN(c2ccc(OC(F)F)cc2)C(=O)c2c(-c3ccc4nccn4c3)cnn21` [Example 9, (7S)-5-[4-(difluoromethoxy)phenyl]-3-(imidazo[1,2-a]pyridin-6-yl)-7-methyl-6,7-dihydropyrazolo[1,5-a]pyrazin-4(5H)-one], 61 nM.

The values above are taken from patent US11633395B2, “Substituted pyrazolo[1,5-a]pyrazines as negative allosteric modulators of group II metabotropic glutamate receptor” (Sumitomo Pharma Co., Ltd., priority 2017, dated 2023).
